Measurements: ChEMBL document CHEMBL5329193, “Targeting Mycobacterium tuberculosis iron-scavenging tools: a recent update on siderophores inhibitors” (RSC Med Chem, 2023)
≈ marks a conversion by molar mass, not a printed value.

Columns and labels:
[1] = system: Mycobacterium tuberculosis; assay: Antimycobacterial activity against Mycobacterium tuberculosis H37Ra assessed as reduction in bacterial growth by MABA method; format: functional
[2] = system: Mycobacterium tuberculosis; assay: Antimycobacterial activity against Mycobacterium tuberculosis assessed as reduction in bacterial growth measured after 7 days by fluorescence microplate analysis; format: functional, organism-based; settings: 168 h; for MIC: time 7 day
[3] = system: Mycobacterium tuberculosis; assay: Antimycobacterial activity against intracellular Mycobacterium tuberculosis assessed as reduction in cell growth; format: functional
[4] = system: Mycobacterium tuberculosis; assay: Antimycobacterial activity against Mycobacterium tuberculosis H37Rv assessed as reduction in bacterial growth incubated for 5 days by resazurin dye based fluorescence analysis; format: functional; settings: 120 h, time 5 day
[5] = Cytotoxicity against mouse RAW264.7 cells assessed as reduction in cell viability incubated for 48 hrs by MTT assay; format: toxicity, cell-based
[6] = system: Mycobacterium tuberculosis; assay: Antimycobacterial activity against Mycobacterium tuberculosis assessed as reduction in bacterial cell growth measured after 24 hrs; format: functional, organism-based
[7] = system: Mycobacterium tuberculosis; assay: Antimycobacterial activity against Mycobacterium tuberculosis assessed as inhibition of bacterial growth incubated for 7 days by broth dilution method; format: functional; settings: 168 h, time 7 day
[8] = Binding affinity to Mycobacterium tuberculosis salicylate synthase using chorismic acid as substrate in presence of MgCl2 by fluorimetric assay
[9] = system: Mycobacterium tuberculosis; assay: Antibacterial activity against Mycobacterium tuberculosis H37Rv assessed as reduction in bacterial growth; format: functional
[10] = system: Mycobacterium tuberculosis; assay: Antimycobacterial activity against Mycobacterium tuberculosis H37Rv assessed as inhibition of bacterial growth incubated for 5 days by broth microdilution method; format: functional; settings: 120 h, time 5 day
[11] = system: Mycobacterium tuberculosis; assay: Antibacterial activity against Mycobacterium tuberculosis H37Rv assessed as reduction in bacterial growth incubated for 7 to 14 days; format: functional; settings: time 7-14 day
[12] = system: Mycobacterium tuberculosis; assay: Antibacterial activity against Mycobacterium tuberculosis H37Rv assessed as reduction in bacterial growth incubated for 7 to 14 days by broth microdilution method; format: functional; settings: time 7-14 day
[13] = system: Mycobacterium tuberculosis; assay: Antimicrobial activity against Mycobacterium tuberculosis H37Rv assessed as reduction in bacterial growth by Alamar Blue fluorescence assay; format: functional
[14] = Inhibition of Mycobacterium tuberculosis IdeR assessed as reduction in IdeR DNA binding activity by electrophoretic mobility shift assay
[15] = system: Mycobacterium tuberculosis; assay: Antitubercular activity against Mycobacterium tuberculosis H37Rv assessed as reduction in microbial growth by broth dilution method; format: functional, organism-based
[16] = biological target: T1, Enoyl-[acyl-carrier-protein] reductase [NADH] (Mycobacterium tuberculosis, UniProt P9WGR1); assay: Binding affinity to Mycobacterium tuberculosis InhA assessed as inhibition constant
T1 sequence (P9WGR1 whole entry): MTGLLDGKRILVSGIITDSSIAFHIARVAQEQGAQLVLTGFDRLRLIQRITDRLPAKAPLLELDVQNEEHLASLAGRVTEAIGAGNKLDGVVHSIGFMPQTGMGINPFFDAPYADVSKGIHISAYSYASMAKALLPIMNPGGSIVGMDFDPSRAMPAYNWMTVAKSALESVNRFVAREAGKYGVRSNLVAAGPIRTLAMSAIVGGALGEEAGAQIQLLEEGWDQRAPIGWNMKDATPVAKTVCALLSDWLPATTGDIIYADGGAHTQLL

[17] = system: Mycobacterium tuberculosis; assay: Antimycobacterial activity against Mycobacterium tuberculosis H37Rv by green fluorescent protein microplate assay; format: functional
[18] = system: Mycobacterium tuberculosis; assay: Antitubercular activity against Mycobacterium tuberculosis XDR-FJ05195 assessed as inhibition of bacterial growth incubated for 14 days by microplate alamar blue assay; format: functional; settings: XDR-FJ05195, 336 h, time 14 day
[19] = system: Mycobacterium tuberculosis; assay: Antitubercular activity against Mycobacterium tuberculosis H37Rv ATCC 25618 assessed as reduction in bacterial growth; format: functional
[20] = Inhibition of recombinant Mycobacterium tuberculosis salicylate synthase by fluorimetric assay
[21] = system: Mycobacterium tuberculosis; assay: Antimycobacterial activity against Mycobacterium tuberculosis H37Rv assessed as reduction in bacterial growth after 7 days by resazurin based fluorescence assay; format: functional, organism-based; settings: 168 h
[22] = system: Mycobacterium tuberculosis; assay: Antimycobacterial activity against Mycobacterium tuberculosis H37Rv assessed as inhibition of bacterial growth incubated for 7 days by broth dilution method; format: functional; settings: 168 h, time 7 day
[23] = system: Mycolicibacterium smegmatis; assay: Antimycobacterial activity against Mycobacterium smegmatis ATCC 607 assessed as bacterial growth inhibition incubated for 48 hrs by resazurin dye based assay; format: functional
[24] = biological target: T2, Trehalose monomycolate exporter MmpL3 (Mycolicibacterium smegmatis, UniProt A0QP27); assay: Binding affinity to Mycobacterium smegmatis MmpL3 by surface plasmon resonance assay
T2 sequence (A0QP27 whole entry): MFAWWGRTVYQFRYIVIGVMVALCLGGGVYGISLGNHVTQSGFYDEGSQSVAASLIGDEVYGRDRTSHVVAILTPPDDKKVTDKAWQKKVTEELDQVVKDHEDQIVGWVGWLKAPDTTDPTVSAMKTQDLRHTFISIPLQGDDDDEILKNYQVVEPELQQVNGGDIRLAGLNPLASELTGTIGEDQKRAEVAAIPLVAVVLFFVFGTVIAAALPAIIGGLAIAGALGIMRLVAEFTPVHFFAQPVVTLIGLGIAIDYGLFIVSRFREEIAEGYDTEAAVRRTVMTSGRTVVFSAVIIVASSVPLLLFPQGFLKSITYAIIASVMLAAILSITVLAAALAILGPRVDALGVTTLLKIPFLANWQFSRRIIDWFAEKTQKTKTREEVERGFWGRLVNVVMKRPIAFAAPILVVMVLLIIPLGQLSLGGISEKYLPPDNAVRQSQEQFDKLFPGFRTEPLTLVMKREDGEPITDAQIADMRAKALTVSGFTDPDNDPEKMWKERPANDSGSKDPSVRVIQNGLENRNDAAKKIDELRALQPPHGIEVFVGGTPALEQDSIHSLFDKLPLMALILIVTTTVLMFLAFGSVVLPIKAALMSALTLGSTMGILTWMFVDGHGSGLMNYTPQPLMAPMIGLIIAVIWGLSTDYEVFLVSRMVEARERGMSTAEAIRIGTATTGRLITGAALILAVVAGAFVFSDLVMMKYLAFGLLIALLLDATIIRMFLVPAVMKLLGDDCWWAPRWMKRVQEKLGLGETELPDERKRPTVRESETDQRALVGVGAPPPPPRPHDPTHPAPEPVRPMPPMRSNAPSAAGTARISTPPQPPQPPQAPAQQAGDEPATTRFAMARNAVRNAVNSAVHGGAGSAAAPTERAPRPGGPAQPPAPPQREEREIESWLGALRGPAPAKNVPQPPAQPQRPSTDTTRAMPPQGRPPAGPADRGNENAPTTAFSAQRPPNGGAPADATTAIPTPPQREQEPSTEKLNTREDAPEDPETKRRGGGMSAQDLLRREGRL

[25] = system: Mycolicibacterium smegmatis; assay: Antimycobacterial activity against Mycobacterium smegmatis assessed as bacterial growth inhibition incubated for 48 hrs by resazurin dye based assay; format: functional
[26] = biological target: T3, Salicyl-AMP ligase / salicyl-S-ArCP synthetase (Mycobacterium tuberculosis, UniProt P71716); assay: Binding affinity to Mycobacterium tuberculosis H37Rv ATCC 25618 MbtA assessed as apparent binding constant; settings: read-out: Ki(app)
T3 sequence (P71716 whole entry): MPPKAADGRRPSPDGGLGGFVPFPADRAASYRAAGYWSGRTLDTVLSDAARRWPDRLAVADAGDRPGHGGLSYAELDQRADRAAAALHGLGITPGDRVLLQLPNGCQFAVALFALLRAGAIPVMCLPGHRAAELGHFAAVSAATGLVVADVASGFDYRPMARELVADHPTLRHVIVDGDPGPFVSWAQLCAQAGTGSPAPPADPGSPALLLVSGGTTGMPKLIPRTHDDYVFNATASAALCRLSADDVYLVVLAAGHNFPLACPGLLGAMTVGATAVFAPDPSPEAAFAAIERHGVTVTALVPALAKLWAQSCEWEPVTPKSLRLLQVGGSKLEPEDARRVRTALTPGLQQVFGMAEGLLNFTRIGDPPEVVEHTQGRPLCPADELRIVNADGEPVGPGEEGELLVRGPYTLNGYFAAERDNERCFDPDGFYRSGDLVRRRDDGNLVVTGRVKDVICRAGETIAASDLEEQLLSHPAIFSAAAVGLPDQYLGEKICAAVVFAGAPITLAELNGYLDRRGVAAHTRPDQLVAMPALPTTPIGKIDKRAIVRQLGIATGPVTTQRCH

C[N+](C)(CCCN1c2ccccc2Sc2ccc(Cl)cc21)Cc1ccccc1
MIC [1]: 1.1 µg/mL

Cc1ccc(-n2sc3ccccc3c2=O)cc1
IC50 [2]: 1.59 µM

O=[N+]([O-])c1cc(C(F)(F)F)ccc1NCCc1c[nH]c2ccc(O)cc12
IC90 [3]: 9.3 µM | MIC90 [4]: 13 µM (≈ 4.75 µg/mL) | IC50 at 48 h [5]: 29 µM

CCN(CC)S(=O)(=O)c1cccc(-n2sc3ccccc3c2=O)c1
IC50 [2]: 0.86 µM | IC50 [6]: 0.96 µM

O=C(O)c1ccc(-c2ccc([N+](=O)[O-])cc2Cl)o1
MIC [7]: 21.1 µM (≈ 5.65 µg/mL)

Nc1ncnc2c1ncn2[C@@H]1O[C@H](CNS(=O)(=O)NC(=O)c2ccccc2O)[C@@H](O)[C@H]1F
Ki [8]: 0.0017 µM | MIC [9]: 0.19 µM (≈ 0.0888 µg/mL)

Nc1ncnc2c1ncn2[C@@H]1O[C@H](COS(=O)(=O)NC(=O)c2ccccc2O)[C@@H](O)[C@H]1O
MIC [10]: 0.5 µg/mL (≈ 1.07 µM) | MIC [11]: 1.56 µM (≈ 0.728 µg/mL) | MIC [12]: 0.39 µM (≈ 0.182 µg/mL) | MIC [13]: 0.39 µg/mL (≈ 0.836 µM)

O=C(O)C1(Cc2ccc(O)c(O)c2)NCCS1 (stereo not drawn)
IC50 [14]: 2.4 µg/mL

N#Cc1cc(-c2ccc(C(=O)O)o2)cc(C(F)(F)F)c1
IC50 [15]: 15 µM | Ki [16]: 9 µM

CCCCCCCCCCCCCCCCC(=O)N(O)CCCC[C@H](NC(=O)[C@@H]1COC(c2ccccc2O)=N1)C(=O)NC[C@H](CC(=O)CCCO[C@H]1O[C@@H]2O[C@@]3(C)CC[C@H]4[C@H](C)CC[C@@H]([C@H]1C)[C@@]24OO3)C(=O)N[C@H]1CCCCN(O)C1=O
MIC [17]: 0.39 µg/mL (≈ 0.334 µM) | MIC [18]: 0.078 µg/mL (≈ 0.0668 µM)

O=S(=O)(O)c1ccc(O)c(NNc2c(O)ccc3ccccc23)c1
IC50 [14]: 1 µg/mL

Nc1ncnc2c1ncn2[C@@H]1O[C@H](CNS(=O)(=O)NC(=O)c2ccccc2O)[C@@H](O)[C@@H]1F
Ki [8]: 0.0018 µM | MIC [9]: 0.15 µM (≈ 0.0701 µg/mL)

Nc1ncnc2c1ncn2[C@@H]1O[C@H](CNS(=O)(=O)NC(=O)c2ccccc2O)[C@H](F)[C@H]1F
MIC [2]: 0.78 µM (≈ 0.366 µg/mL) | Ki [8]: 0.0014 µM

Cc1ccc(S(=O)(=O)C2CC(=O)N(c3ccc(F)c(Cl)c3)C2=O)cc1 (stereo not drawn)
MIC90 [19]: 17.5 µg/mL (≈ 45.8 µM) | IC50 [14]: 24.3 µg/mL

O=C(O)c1ccc(-c2ccc(C(F)(F)F)cc2C(F)(F)F)o1
Ki [20]: 8.8 µM

N#Cc1cc(C(F)(F)F)ccc1-c1ccc(C(=O)O)o1
IC50 [21]: 18.5 µM | Ki [20]: 5.7 µM

COC(=O)C(=Cc1ccccc1C(F)(F)F)Oc1cccc(C(=O)OC)c1O
Ki [8]: 125 µM | MIC [22]: 25 µM (≈ 9.91 µg/mL)

Nc1ncnc2c1ncn2[C@@H]1O[C@H](CNS(=O)(=O)NC(=O)c2ccccc2O)[C@H](F)[C@H]1O
Ki [8]: 0.0006 µM | MIC [9]: 0.6 µM (≈ 0.28 µg/mL)

Nc1ncnc2c1ncn2[C@@H]1O[C@H](CNS(=O)(=O)NC(=O)c2ccccc2O)[C@@H](F)[C@H]1F
MIC [2]: 37 µM (≈ 17.4 µg/mL) | Ki [8]: 0.139 µM

O=c1cc(CC2CCCCC2)[nH]c2c(-c3ccc(Cl)cc3)cnn12
MIC [23]: 2.5 µM (≈ 0.855 µg/mL)

COc1ncnc2c1ncn2[C@@H]1O[C@H](CNS(=O)(=O)NC(=O)c2ccccc2O)[C@@H](O)[C@H]1O
Ki [24]: 0.277 µM | MIC [25]: 5.3 µg/mL (≈ 11 µM)

C#CCCC(=O)Nc1ccc(C(=O)c2ccc(Nc3nc(N)c4ncn([C@@H]5O[C@H](COS(=O)(=O)NC(=O)c6ccccc6O)[C@@H](O)[C@H]5O)c4n3)cc2)cc1
MIC [11]: 50 µM (≈ 37.8 µg/mL) | Ki [26]: 0.00094 µM | MIC [12]: 3 µM (≈ 2.27 µg/mL)

CC=C(Oc1cccc(C(=O)O)c1O)C(=O)O
Ki [8]: 11 µM | MIC [22]: > 1 µM

N#Cc1cc([N+](=O)[O-])ccc1-c1ccc(C(=O)O)o1
IC50 [21]: 24.4 µM | Ki [20]: 5 µM

CC1CC(=O)c2c(cc(O)cc2C(=O)O)O1 (stereo not drawn)
MIC [7]: 55.8 µM (≈ 12.4 µg/mL)

CN(C[C@H]1O[C@@H](n2cnc3c(N)ncnc32)[C@H](O)[C@@H]1O)S(=O)(=O)NC(=O)c1ccccc1O
Ki [24]: 0.159 µM | MIC [25]: 0.8 µg/mL (≈ 1.67 µM)
